This passage reports PPB, Activity and Cp results from ChEMBL document CHEMBL1137440, “Kinesin spindle protein (KSP) inhibitors. Part 6: Design and synthesis of 3,5-diaryl-4,5-dihydropyrazole amides as potent inhibitors of the mitotic kinesin KSP” (Bioorg Med Chem Lett, 2007).

Test [1] has as its system Plasma. The experiment in a line: Protein binding in mouse plasma. The format is functional, cell-free.
The species named for test [2] is Canis familiaris. The experiment in a line: Induction of drug-induced QTc prolongation in dog cardiovascular model at less than 10 uM. The format is functional, organism-based. As to conditions: Canis lupus familiaris; Heart.
For test [3], the system named is Plasma. Put plainly: Protein binding in human plasma. The format is functional, cell-free.
The test system of test [4] is Plasma. Put plainly: Drug level in A2780 cells bearing mouse plasma, po. The format is functional.
For test [5], the system named is Plasma. Put plainly: Drug level in A2780 cell bearing mouse plasma at 3 mg/kg, po. The format is functional, organism-based. On the set-up: dose 3 mg/kg.
The next test concerns A2780. The experiment in a line: Mitotic arrest in A2780 cells bearing mouse at 3 mg/kg after 22 hrs by phospho-Histone immunohistochemistry assay. In kind it is functional, organism-based. The arrangement: dose 3 mg/kg.
Test [6] is filed under the species Canis familiaris. Put plainly: Induction of drug-induced QTc prolongation in dog cardiovascular model at 40 uM. The format is functional, organism-based. Particulars: Canis lupus familiaris, Heart.

The structures appear in SMILES notation. Active and inactive are the calls of the source. The calls are words filed in the database; no cut-off is given here.

Take `CC(=O)N1CCN(CCC[C@@]2(c3ccccc3)CC(c3cc(F)ccc3F)=NN2C(C)=O)CC1`: the values for the PPB in the test on Plasma [1] and with Plasma [3] were 92% and 91%, respectively. The outcome in the test listed under Canis familiaris [2] was Active. Moreover, the Cp in the test on Plasma [4] worked out at 56 nM.
Take `CC(=O)N1N=C(c2cc(F)ccc2F)C[C@@]1(C[C@H](F)CN)c1ccccc1`: the Cp with Plasma [5] stood at 38 nM. The outcome in the test with A2780 was Active. Further, in the test filed under Canis familiaris [6], the outcome was inactive.
